What all share (experiment): POST trolley belt sprayer test (Example 3)
Holding throughout (conditions): 600 g/ha, 14 DAT

For data set [1], the system named is BYG (Barnyardgrass). The class given is in vivo, Echinochloa crus-galli. The method, then:
(§1) All POST crops and weeds plants were grown into separate square pots which measured 10×10 cm. The soil used was amended with Redi-Eartho Plug and Seedling Mix in a one to one ratio. Ten to twenty seeds per small seeded species were planted per pot. Five to ten seeds were planted with large seeded species. Seeds were sown 0.5 inches deep. Generally, POST plants were 7 to 21 days old (from planting) when sprayed. Grasses were in the 2-4 leaf stage and broadleaf weeds were in the 1-2 true leaf stage.
(§2) The spray volume was 50 gallons per acre (468 I/Ha). Rates of application (grams per hectare) varied depending on the concentration of chemical within each individual spray solution. Technical samples were dissolved in acetone. Formulations are suspended in water. All applications were made using a trolley belt sprayer. The test plants were placed on the belt inside the spray hood. Then the spray nozzle which is attached to the trolley, moves mechanically over the top of the plants. The spray nozzle delivers a flat fan spray pattern and is a typical nozzle used in herbicide field applications. The belt carries the plants out of the spray hood and into a drying chamber.
(§3) After spray application, the test plants were placed in a vented cabinet until dry, then placed in the greenhouse. […] The trolley sprayer settings were as follows (50 (GPA) Gallons Per Acre or (468 L/Ha): […]

For data set [2], the system named is RI (Rice). The class given is in vivo, Oryza sativa. The method, then: as §1, §2, §3
Data set [3] concerns FOX (Foxtail). The data set is classed as in vivo, Setaria viridis. The method, then: as §1, §2, §3
The subject of data set [4] is TEA (Teaweed). The class given is in vivo, Sida spinosa. The method, then:
as §1, §2, §3

In data set [5] the test system is PIG (Pigweed). The data set is classed as in vivo, Amaranthus retroflexus. As to the method:
as §1, §2, §3

Data set [6] has as its system WHT (Wheat). The data set is classed as in vivo, Triticum spp. As to the method: as §1, §2, §3
Data set [7] deals with CKL (Cocklebur). The data set is classed as in vivo, Xanthium pensylvanicum. The method, then:
as §1, §2, §3

Data set [8] concerns Grassy Weeds (Avg Monocot). The class given is in vivo. As to the method:
as §1, §2, §3

Data set [9] relates to Broadleaf Weeds (Avg Dicot). The class given is in vivo. The method, then:
as §1, §2, §3

Data set [10] relates to MG (Morningglory). The data set is classed as in vivo, Ipomoea hederacea. The method, then: as §1, §2, §3
Data set [11] deals with NS (Nightshade). The data set is classed as in vivo, Solanum nigrum. The method, then: as §1, §2, §3
Data set [12] concerns NUT (Nutsedge). The class given is in vivo, Cyperus esculentus. The method, then: as §1, §2, §3
In data set [13] the test system is CN (Corn). The data set is classed as in vivo, Zea mays. The method, then:
as §1, §2, §3

The test system of data set [14] is BP (Blue panicum). The data set is classed as in vivo, Panicum antidotale. The method, then: as §1, §2, §3
Data set [15] deals with SOY (Soybean). The class given is in vivo, Glycine max. As to the method:
as §1, §2, §3

Data set [16] concerns CRB (Crabgrass). The data set is classed as in vivo, Digitaria sanguinalis. The method, then:
as §1, §2, §3

The subject of data set [17] is SPR (Sprangletop). The class given is in vivo, Leptochloa dubia. The method, then: as §1, §2, §3
Data set [18] deals with BID (Bidens). The class given is in vivo, Bidens pilosa. As to the method:
as §1, §2, §3

Data set [19] deals with VEL (Velvetleaf). The class given is in vivo, Abutilon theophrasti. The method, then:
as §1, §2, §3

Data set [20] relates to SIG (Signalgrass). The data set is classed as in vivo, Brachiaria platyphylla. As to the method:
as §1, §2, §3

Data set [21] deals with SMT (Smartweed). The class given is in vivo, Polygonum lapathifolium. As to the method: as §1, §2, §3
The test system of data set [22] is RYE (Ryegrass). The class given is in vivo, Lolium multiflorum. As to the method: as §1, §2, §3
For data set [23], the system named is COT (Cotton). The data set is classed as in vivo, Gossypium hirsutum. As to the method:
as §1, §2, §3

Take `C[n+]1ccc(-c2cc[n+](C)cc2)cc1` [Paraquat]: the “% POST Control of Grassy Weeds” value in [1] is reported as 95%; in [3], 90%; in data set [12], 85%; in [14], 100%; in data set [16] it was 90%; in data set [17] it was 100%. The entries for the “% POST Control of Grassy Weeds” value in [20] and in [22] were 85% and 100%, respectively. In addition, the “% Crop Injury” value in data set [2] stood at 100%; in [6], 100%; in data set [13], 85%; in data set [15], 100%; in [23], 100%. Moreover, the “% POST Control of Broadleaf Weeds” value in data set [4] worked out at 85%; in data set [5] it was 100%; in data set [7], 100%; in data set [10], 100%; in [11], 100%; in [18], 100%. Also, the “% POST Control of Broadleaf Weeds” value in data set [19] and in data set [21] was 100% each time. For the same compound, the “% POST Control of Grassy Weeds, Avg Monocot” value in [8] is listed as 93%. In addition, the “% POST Control of Broadleaf Weeds, Avg Dicot” value in data set [9] is 98%.

The record behind these values is patent US20050272606A1, “Plant life control composition” (priority 1999, published 2005).
